This note sets out measurements from patent US20110189280A1, “DOSAGE FORM COMPRISING 1-ISOPROPYL-4-HEXAHYDRO-1H-1,4-DIAZEPINE OR A SALT THEREOF” (priority 2008, published 2011).

The series can be described thus: Gravimetric vapour sorption (GVS) analysis, water sorption/desorption at different relative humidities. It counts as physicochemical. To be noted: across the 0-90% relative humidity range at 25° C. under nitrogen.

Take `CC(C)N1CCCN(C(=O)c2ccc(OC3CCOCC3)cc2)CC1.Cl` [Drug Preparation Example 1 Part C, 1-isopropyl-4-{[4-(tetrahydro-2H-pyran-4-yloxy)phenyl]carbonyl}hexahydro-1H-1,4-diazepine hydrochloride]: for the setting “sample before purification by recrystallisation, data not shown”, the “water adsorbed and/or absorbed, and/or desorbed (GVS), compared with crystalline Form 1 mono-maleate” value is “higher quantities of water”.
As to `CC(C)N1CCCN(C(=O)c2ccc(OC3CCOCC3)cc2)CC1.O=C(O)/C=C\C(=O)O` [Drug Preparation Example 3, 1-Isopropyl-4-{[4-(tetrahydro-2H-pyran-4-yloxy)phenyl]carbonyl}hexahydro-1H-1,4-diazepine mono-maleate salt (crystalline Form 1)], the “water reversibly adsorbed and/or absorbed, and/or desorbed (GVS)” value is listed as “approximately 0.4 % w/w”.
